Reference: patent US12233413B2, “Massively parallel microfluidic cell analyzer for high throughput mechanophenotyping” (priority 2018, dated 2025)
Where two headings read alike, the source gives them in different places.

What was measured:
[1] = system: MDA-MB-231 (human mammary adenocarcinoma) cells; type: cell-based
Method: For each population in our experiments, we used the computed sensor signal amplitude and constriction transit time as measures of the cell size and its stiffness, respectively (see FIGS. 10A-10C).
Because the data on different cell populations were acquired under the same driving pressure and electrical excitation, we could directly compare the characterization results (see FIG. 10D).
For the single frequency device, two different sample of MDA-MB-231 cells were treated with Latrunculin A (Sigma-Aldrich; St. Louis, MO) and formaldehyde (Sigma-Aldrich; St. Louis, MO) and suspended in Phosphate Buffered Saline (PBS). […] Prior to experiments, the cells were trypsinized for two minutes, pelleted, resuspended in PBS and mixed gently to dissociate cell clusters that may have formed. Finally, the suspension was diluted with PBS to a cell concentration of 1.5×10^6 cells/mL. For the LatA exposure, 100 μg of LatA in lyophilized powder form was reconstituted in dimethyl sulfoxide (DMSO), then diluted in PBS to form a 5.9 nM stock solution. The trypsinized and pelleted MDA-MB-231 cells were mixed with 1 mL of 1 nM LatA and incubated at 37° C. for 60 mins. The cells were pelleted once more and resuspended in PBS. […] The trypsinized and pelleted MDA-MB-231 cells were mixed with diluted 4% PFA and incubated at 37° C. for 10 mins. The cells were pelleted once more and resuspended in PBS.
During the above-described experiment, the cell sample was loaded into a sealed 10 mL laboratory tube and pneumatically driven through the device using a software-controlled pressure regulator (MFCSEZ, Fluigent). The driving pressure was 100 mbar for both single-frequency and multi-frequency devices. In the case of the single-frequency device, the electrical networks were excited using a 800 mVpp, 500 kHz sinusoidal signal generated by the lock-in amplifier (HF2LI, Zurich Instruments). For the multi-frequency device, the 500 kHz and 900 kHz sine signals were generated by the lock-in amplifier, whereas the 1300 kHz signal was obtained using a waveform generator (33612A, Keysight), all at 800 mVpp.

[2] = system: HeyA8 ovarian cancer cells; type: cell-based
Method: Cell transit times were determined in accordance with the approach described above. […] In the testing, Phosphate Buffered Saline (PBS) suspended HeyA8 ovarian cancer cells were driven through the device using a pressure pump controller (Fluigent MFCS-EZ) at 80 mbar. Three suspensions of cells with varying stiffness were prepared. The first sample was exposed to 1 μM Latrunculin A, abbreviated as LatA, (Sigma-Aldrich), an Actin polymerization inhibitor, for 60 mins at 37° C. to reduce the cell stiffness. The second sample was left untreated. […] In operation, the sensor network 620 was driven with an 500 kHz AC signal and the electrical sensor data from the chip was recorded using a lock-in-amplifier (Zurich Instruments HF2LI) and sampled into a computer. The cell size and the transit time were both measured from the sensor signal peak amplitude and the time delay between the code waveforms corresponding to sensor pairs, respectively.

C=O [Formaldehyde]
average constriction transit time of treated cells [1]: 54.01 ms | longer transit time of treated cells compared to the untreated cells [2]: 36%

C/C1=C/C(=O)O[C@@H]2C[C@@H](CC[C@H](C)/C=C\C=C\CC1)O[C@@](O)([C@@H]1CSC(=O)N1)C2 [LatA, Latrunculin A]
less constriction transit time than untreated cells, on average ([1]; MDA-MB-231, 1 nM LatA 60 mins at 37° C., 100 mbar): 8.9% | average constriction transit time of treated cells ([1]; MDA-MB-231, 100 mbar, 1.5×10^6 cells/mL, LatA 1 nM 60 mins 37° C., fixation with diluted 4% PFA 10 mins 37° C.): 42.35 ms | transit time of the untreated cells longer than that of the LatA treated cells, on average ([2]; HeyA8 cells in PBS, 1 μM Latrunculin A, 60 mins at 37° C., driven at 80 mbar): 34%
